What was measured:
Format in all cases: cell-based
[1] = system: KhES-1_Rx::Venus cells; test: Retinal differentiation induction with or without LDN-193189 addition (GFP and Chx10 expression)
Procedure: • 1. KhES-1_Rx::Venus cells (KhES-1 cells obtained by knocking a GFP variant called Venus in the locus of a retinal marker Rx) that reached optimal confluence were collected by removing the medium and washed twice with 1 mL of PBS (−). • 2. The cells were incubated at 37° C. and 5% CO2 with 0.5×TrypLE™ Select added at 500 μL/well. • 3. After the 0.5×TrypLE™ Select was removed, PBS (−) was added to the well at 2 mL/well and the cells were peeled off by spraying PBS (−). • 4. The cells were collected into a 15 mL Falcon tube and the cell number was counted. • 5. The required number of cells (5×10^5 cells per dish) was transferred to another tube and centrifuged at 1000 rpm at 20° C. for 5 minutes. • 6. After the supernatant was removed, the cells were suspended with AK02N+Y to provide a cell suspension of 5×10^5 cells/200 μL AK02N+Y. • 7. The iMatrix coating solution within the PDMS sheet was removed with an aspirator and the cell suspension (5×10^5 cells/200 μL AK02N+Y) was added to the circle and incubated at 37° C. for 30 minutes. • 8. The PDMS sheet was removed from the dish with sterilized tweezers. • 9. The cells was cultured at 37° C. and 5% CO2 with 300 μL of AK02 N+Y added to the dish. <Day 1: Medium Replacement with AK02+PS> • 1. The whole medium was replaced with 1 mL of gfCDM (10% KSR) containing LDN-193189 (04-0074-02, ReproCELL Inc.) (hereinafter referred to as LDN). (final concentration of 100 nM LDN). […] Expressions of Chx10, Recoverin, FOXG1, Crx, Tuj1, Zo-1, and Pax6 were evaluated by immunostaining with primary antibodies specific for the respective markers and secondary antibodies suitable for the primary antibodies. The effect of LDN-193189, a BMP signaling inhibitor, on the differentiation induction was evaluated. […] Also, expressions of GFP and Chx10 at Day 18 were evaluated in the patterned and non-patterned cells with or without the LDN-193189 addition. The Chx10 expression was assessed by quantitative PCR (using HPRT1 as an endogenous control) and immunostaining.

[2] = system: human iPS cells (DSP-SQ line); test: Duration of action of Y-27632 at cell seeding in patterning culture (DSP-SQ line); details: shortening the duration of action of Y-27632; Day 20; immunostaining
Procedure: (§1) For patterning, a droplet (1 cm in diameter) of a solution containing 0.785 μl of Laminin511-E8 (Nippi. Inc.) in 100 μl of PBS (Laminin51l-E8 concentration of 3.925 ng/μl) was made in the center of the wells of a 12-well plate (Iwaki, for cell culture, culture area 3.8 cm^2) and then incubated at 37° C. or room temperature for 1 to 3 hours to prepare 12-well-plates for patterning culture (Laminin511-E8: 0.5 μg/cm^2).
First, a 12-well plate for patterning culture prepared by the method described in Example 1 was provided, and subconfluent human iPS cells (LPF11 and DSP-SQ lines) were washed with PBS and dispersed into single cells using TrypLE Select (Life Technologies). […]
(§2) The patterning culture was then performed as described in Example 1, and on Day 20 of seeding, cells were fixed with 4% paraformaldehyde and bright-field images were obtained with a fluorescence microscope (Keyence). […] The percentage of Chx10-positive areas on the sheet surface was calculated using ImageJ software (NIH) and was 91% for sheets with Y-27632 for 32 hours, compared to 97% or more for sheets with Y-27632 for 16 hours or less (16 hours: 97%, 8 hours: 99%, 4 hours: 98%, 2 hours: 99%).

[3] = system: human iPS cells (LPF11 line); test: Duration of action of Y-27632 at cell seeding in patterning culture (LPF11 line); details: for percentage of Chx10-positive areas on the sheet surface: ImageJ
Procedure: The percentage of area covered by a retinal tissue on the region A may be measured by any methods, and for example, can be measured by staining the retinal tissue. For example, it is measured by staining expression of the retinal cell marker described above (such as Chx10) (e.g., by immunostaining with a fluorescently labeled anti-Chx10 antibody). Then, by using imaging software such as ImageJ software (NIH), the ratio of the area of the retinal cell marker-positive region to the area of the region A can be calculated.
as §1
(§3) First, a 12-well plate for patterning culture prepared by the method described in Example 1 was provided, and subconfluent human iPS cells (LPF11 and DSP-SQ lines) were washed with PBS and dispersed into single cells using TrypLE Select (Life Technologies). The human iPS cells dispersed into single cells were then seeded into one well of the patterning culture plate at a density of 2.0×10^5 cells/cm^2 and cultured under feeder-free condition in Stemfit medium in the presence of Y-27632 (ROCK inhibitor, 10 μM). Then, after 2, 4, 8, 16, or 32 hours culture, the medium was replaced with 2 ml of StemFit medium without Y-27632.
as §2

[4] = system: human iPS cells (LPF11 line); test: BMP4 concentration for retinal differentiation by patterning culture (Rx immunostaining, real-time PCR); details: Day 20
Procedure: as §3, with “line)” for “and DSP-SQ lines)”, “Two” for “Then, after 2, 4, 8, 16, or 32”, “later,” for “culture,”, “Y-27632 and patterning culture was performed as described in Example 1.” for “Y-27632.”
On Day 7 of patterning culture, the medium was replaced with serum-free medium (gfCDM+KSR) containing exogenous human recombinant BMP4 (R&D) at a final concentration of 0, 1.5, 3, 6, or 12 nM. Thereafter, half of the medium was replaced with serum-free medium (gfCDM+KSR) without human recombinant BMP4 every 2 to 3 days. […]
Total RNA was then extracted from the retinal tissue using a spin column (QIAGEN, RNeasy Micro kit) by the method described in the kit. The concentration of total RNA was measured by a measuring device (Nanodrop, Thermo scientific) and then reverse transcribed into cDNA using reverse transcriptase and primers (Reverse Transcription Master Mix Kit, Fluidigm). […] The Pre-Run reaction solutions were then injected into a flow-through multi-well (96. 96 Dynamic Array IFC, Fluidigm) using an IFC Controller HX (Fluidigm), and the expression levels of marker genes for neural retina and for by-products other than neural retina were determined by real-time PCR using a multi-sample real-time PCR system (Biomark HD, Fluidigm).
Specifically, the ΔCt value was calculated from the difference between the Ct value of the target gene and the Ct value of GAPDH, the gene used as the internal standard, and the ratio of expression level of each gene was calculated from the difference in ΔCt between samples (ΔΔCt).

c1ccc2c(-c3cnn4cc(-c5ccc(N6CCNCC6)cc5)cnc34)ccnc2c1 [LDN-193189, 4-[6-(4-Piperazin-1-ylphenyl)pyrazolo[1,5-a]pyrimidin-3-yl]quinoline]
GFP expression ([1]; Day 11, patterning culture, LDN-193189 100 nM from Day 3 to Day 8, compared to cells without LDN-193189): uniform GFP expression | Chx10 expression ([1]; Day 18, without patterning culture, quantitative PCR (HPRT1 control) and immunostaining, with vs without LDN-193189 addition): increased | GFP expression ([1]; Day 18, without patterning culture, with vs without LDN-193189 addition): increased

C[C@@H](N)[C@H]1CC[C@H](C(=O)Nc2ccncc2)CC1 [Y-27632]
Chx10-negative areas on the sheet surface [2]: fewer Chx10-negative areas | survival of human iPS cells after removing Y-27632 ([3]; Y-27632 10 μM for 2, 4, 8, 16 or 32 hours, LPF11 and DSP-SQ lines): survived | percentage of Chx10-positive areas on the sheet surface ([3]; Y-27632 10 μM for 2 hours, Day 20): 99% | percentage of Chx10-positive areas on the sheet surface ([3]; Y-27632 10 μM for 4 hours, Day 20): 98% | percentage of Chx10-positive areas on the sheet surface ([3]; Y-27632 10 μM for 8 hours, Day 20): 99% | percentage of Chx10-positive areas on the sheet surface ([3]; Y-27632 10 μM for 16 hours or less, Day 20): ≥ 97% | percentage of Chx10-positive areas on the sheet surface ([3]; Y-27632 10 μM for 16 hours, Day 20): 97% | percentage of Chx10-positive areas on the sheet surface ([3]; Y-27632 10 μM for 32 hours, Day 20): 91% | holes on the cell sheet surface ([3]; longer duration of action of Y-27632 (2 to 32 hours), Day 20, bright-field): the more holes were created

B1: BMP4: human recombinant BMP4 (R&D), BMP signaling activator (protein, UniProt P12644 293-408, looked up)
Bone morphogenetic protein 4: SPKHHSQRARKKNKNCRRHSLYVDFSDVGWNDWIVAPPGYQAFYCHGDCPFPLADHLNSTNHAIVQTLVNSVNSSIPKACCVPTELSAISMLYLDEYDKVVLKNYQEMVVEGCGCR
expression of retinal progenitor cell marker Rx (immunostaining) ([4]; BMP4 3 to 12 nM compared to 1.5 nM): more strongly expressed | expression of retinal progenitor cell marker genes Chx10 and Rx (relative mRNA, real-time PCR) ([4]; BMP4 3 to 12 nM compared to 1.5 nM, GAPDH internal standard): higher expression | expression of Emx2, marker gene for unintended cells (relative mRNA, real-time PCR) ([4]; BMP4 3 to 12 nM): low and suppressed expression

Reference: patent US20260218126A1, “METHOD FOR PRODUCING RETINAL TISSUE” (RACTHERA CO., LTD., priority 2023, published 2026)
